Results reported in US7482008B1, “Human T cell reactive feline protein (TRFP) isolated from house dust and uses therefor” (Merck Patent GmbH, priority 1989, dated 2009).

What was measured:
[1] = system: T cells from cat-allergic patients; assay: Secondary proliferation assay of T cells primed with TRFP, peptide YXZ or peptide YZX; format: cell-based, human
Method: The human cat allergic T cell response to peptides produced as above was examined. […] Peptide YZX was cleaved with thrombin as described in Example 25. Viable cells were then purified by Ficoll-Hypaque centrifugation and cultured for 2 additional weeks in RPMI-1640/5% AB serum containing 5 units recombinant human IL-2/ml and 5 units recombinant human IL-4/ml. The resting T cells were then tested in a secondary proliferation assay using a 96 well microtiter plate to assess T cell responses to various TRFP proteins or peptides (TRFP antigens). For assay, 2×10^4 resting T cells were cultured for 3 days at 37° C. in the presence of 2×10^4 autologous Epstein-Barr virus transformed B cells (25,000 Rads) as antigen presenting cells with various concentrations of antigen in 200 μl per well. Each well then received 1 μCi tritiated thymidine for 16 hours. The counts incorporated were collected onto glass fiber filters and processed for liquid scintillation counting. The stimulation indices for responses to each antigen were then calculated as the maximum CPM in response to antigen divided by the medium control CPM. A stimulation index of 2.5 was considered to be a positive T cell response. A summary of the results of 3 such experiments (patients 522, 519, and 386 is shown in FIG. 35a, FIG. 35b and FIG. 35c). As compared to the experiments shown in FIGS. 35a and 35b in the experiment shown in […], Fel-1.4 (chain 1, amino acid residues 6-17) was substituted for Fel-1.2 (chain 1, amino acid residues 1-17) and Fel-33.3 (chain 2, amino acid residues 26-40) was substituted for Fel-18 (chain 2, amino acid residues 23-48) in order to more closely resemble the constituent amino acids of peptides X and Z. In addition, in this experiment one peptide derived from the Y-Z junction of peptide YZX (amino acid residues 50-55 from chain 1 of TRFP and amino acid residues 14-19 from chain 2 of TRFP) and one peptide derived from the Z-X junction of peptide YZX (amino acid residues 34-39 of chain 2 of TRFP and amino acid residues 7-12 of chain 1 of TRFP) were synthesized and tested. These junction peptides were produced in order to determine whether these areas of peptide YZX produce a non-native epitope when formed in the peptide.

[2] = system: human IgE (cat allergic patient plasma); assay: Direct binding ELISA of human IgE to coated antigen; conditions: for specific IgE binding: direct binding ELISA or similar protocol
Method: The basic format of these ELISA assays was a direct binding assay wherein the antigen was coated onto the wells of a 96 well microtitre dish and then antibodies in solution are added and assayed for the binding capacity. The protocol for these assays was as follows:
The peptides were conjugated to HSA (human serum albumin) by two different methods based on their chemical structure. […] Both conjugates were filter purified and dialyzed against PBS. In the ELISA assay, the unbound coating antigens were removed and the wells were blocked with 0.5% gelatin in PBS, 200 μl/well for 2 hours at room temperature. The antibody solution was a pool of plasma samples from 20 patients that were skin test positive for commercial cat extract which was serially diluted with PBS-Tween 20 (PBS with 0.05% nonionic detergent Tween-Sigma, St. Louis Mo.) and 100 μl/well was added and incubated overnight at 4° C. (plasma dilutions are tested in duplicate). […] The second antibody (biotinylated goat anti-Human IgE, 1:1000 Kirkegaard & Perry Laboratories Inc. Gaithersburg, Md.), was added at 100 μl/well for one hour at room temperature. This solution was removed and streptavidin-HRPO, 1:1000, (Southern Biotechnology Associates, Inc., Birmingham, Ala.) was then added at 100 μl/well for one hour at room temperature (all wells were washed three times with PBS-Tween between each incubation step). TMB Membrane Peroxidase Substrate system (Kirkegaard & Perry Laboratories) was freshly mixed, and added at 100 μl/well. The color was allowed to develop for 2-5 minutes. The reaction was stopped by the addition of […] of 1 M phosphoric acid. Plates are read on a Microplate EL 310 Autoreader (Biotek Instruments, Winooski, Vt.) with a 450 nm filter. The absorbance levels of duplicate wells were averaged.

basophils = assay: Histamine release from basophils in heparinized whole blood of cat allergic patients; format: cell-based, human; conditions: eight cat allergic patients
Method: The histamine release assay used for these studies is based on the detection of an acylated derivative of histamine using a specific monoclonal antibody (Morel, A. M. and Delaage, M. A.; 1988, J. Allergy Clin. Immunol. 82:646-654.) This assay was performed as two separate protocols: 1) the release of histamine from basophils present in heparinized whole blood in the presence of different concentrations of antigens and 2) the actual assaying of histamine present in the supernates of the release reactions following cell removal by centrifugation. The reagents for this histamine radioimmunoassay are supplied commercially as a kit by Amac Inc. (Westbrook, Me.).
Whole blood was drawn from cat allergic patients using heparinized syringes or vacutainers. […] The buffer control consisted of whole blood with just buffer and no added antigen. The release reactions were then carried out at 37° C. for 30 minutes. After this incubation the tubes were centrifuged at 1500 RPM for 3 minutes and the supernates were carefully removed. It was important to spin gently so that there would be no cell lysis giving misleading results. […]
For the RIA analysis, a 50 μl aliquot of the release supernatant was diluted 1:4 with Histamine release buffer (supplied with the kit from Amac Inc.) Then 100 μl of each diluted supernatant was added to the tubes containing the acylation reagent (a lyophilized powder). […] Then they were counted on a gamma counter (Cobra 5005, Beckman Inc.) for two minutes/tube.
Following the quantitation of ^125I label/tube the standard curve is generated from the histamine standard counts and plotted on semi-log paper. Because this is a competition assay, with labelled ^125I tracer competing with the standards or unknowns for cell supernatants, the lower the recorded counts the greater the amount of cold acylated histamine in the binding assay. The data points were then generated by reading off the values on the plotted standard curve of counts versus histamine concentration (in nM).

[3] = patient 519, cells primed with peptide YXZ
[4] = patient 522, T cells primed with YXZ
[5] = patient 386, T cells primed with YZX
[6] = patient 386, T cells primed with native TRFP
[7] = patient 519, native TRFP-primed T cells
[8] = patient 522, T cells primed with native TRFP, SI 2.5 positive

| Substance | T cell response [1, 3] | T cell response [1, 4] | Positive Binding ([2]; ELISA, percent of cat allergic patients with positive IgE binding) [%] | absorbance reading, IgE binding ([2]; pooled plasma, first dilution 1:2 in PBS) | histamine release (basophils) | T cell response [1, 5] | T cell response [1, 6] | T cell response [1, 7] | T cell response [1, 8] | specific IgE binding [2] | specific IgE binding ([2]; listed as Fel 8-3) | specific IgE binding ([2]; listed as Fel 30-4) |
| --- | --- | --- | --- | --- | --- | --- | --- | --- | --- | --- | --- | --- |
| NARILKNCVDAKMTEEDKE [Fel 4, TRFP chain 1 amino acids 37-55] | positive responses | respond at a similar level or better |  |  |  |  |  |  |  |  |  |  |
| TRFP: human T cell reactive feline protein affinity purified from house dust; two covalently linked chains | positive responses | respond less well | 100 | 0.65 | at all but the lowest concentration, gives a clear release signal | respond at a similar level or better | positively respond | respond | positively respond |  |  |  |
| peptide X: amino acid residues 7-30 from chain 1 of TRFP (SEQ. ID. NO: 17); Table 2 lists Fel 8-3 as 7-33 (KRDVDLFLTGTPDEYVEQVAQYKALPV) | positive responses | respond at a similar level or better |  |  | no discernible histamine release | respond at a similar level or better | positively respond |  |  | do not demonstrate any specific IgE binding | No direct IgE binding |  |
| peptide Y: amino acid residues 29-55 from chain 1 of TRFP (SEQ. ID. NO: 18) (KALPVVLENARILKNCVDAKMTEEDKE) | positive responses | respond at a similar level or better |  |  | no discernible histamine release | respond at a similar level or better | positively respond | respond | positively respond | do not demonstrate any specific IgE binding |  | No direct IgE binding |
